Measured values as given in patent US7495027B2, “3-aryl-4-hydroxyfuranone compounds and the human and animal health use thereof” (Wyeth, priority 2003, dated 2009).
≈ marks a conversion by molar mass, not a printed value. Where two headings read alike, the source gives them in different places.

Columns and labels:
[1] = target: T1, S. aureus Uridine-diphosphate-N-acetvimuramoyl: L-alanine lipase, MurC (Staphylococcus aureus, UniProt Q2FXJ0); experiment: biochemical; details: (S) S. aureus enzyme; for IC50: read-out: MurC IC50 (converted)
T1 sequence (Q2FXJ0 1-437): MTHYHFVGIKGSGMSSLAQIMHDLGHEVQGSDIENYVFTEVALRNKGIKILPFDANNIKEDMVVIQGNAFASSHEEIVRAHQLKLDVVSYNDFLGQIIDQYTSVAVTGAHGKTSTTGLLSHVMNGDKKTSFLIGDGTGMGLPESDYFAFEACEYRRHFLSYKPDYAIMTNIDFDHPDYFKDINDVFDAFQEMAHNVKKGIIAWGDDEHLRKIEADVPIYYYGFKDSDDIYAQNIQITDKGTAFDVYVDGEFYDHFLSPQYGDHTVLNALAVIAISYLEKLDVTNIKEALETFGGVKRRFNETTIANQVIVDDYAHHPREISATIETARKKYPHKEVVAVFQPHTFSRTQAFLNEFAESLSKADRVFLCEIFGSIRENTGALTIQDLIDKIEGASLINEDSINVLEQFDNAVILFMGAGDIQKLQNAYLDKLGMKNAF
Description: S. aureus and E. coli Uridine-diphosphate-N-acetvimuramoyl: L-alanine lipase, MurC
(§1) Preparation of Enzyme Solution:
A 1 mg/mL stock solution of MurC is prepared in a buffer consisting of 20 mM Tris/HCl (pH 8.5) with 2.5 μM BME. The stock solution is further diluted with the buffer to give a final enzyme concentration of 100 μg/mL for the E. coli stock solution and 70 μg/mL for the S. aureus stock solution.
Preparation of Test Compound Solutions:
All test solutions are prepared in DMSO as 10 mg/mL, then diluted with 50 mM Tris/HCl (pH 8.5) to 100 μg/mL.
(§2) Preparation of Stop Solution:
The stop solution is prepared by stirring 1 part 4.2% ammonium molydbate in 4N HCl with 2 parts 0.045% malachite green for 30 min.
In this evaluation, the inhibitory activity of a test compound against MurC, the enzyme which catalyzes the third step of bacterial cell wall bioxynthesis is determined. Experiments are performed by adding 2.5 μl buffer, 2.5 μl 0.5M NH4SO2, 5 μl 2 μM L-Ala, 5 μl enzyme solution and 6.5 μl test compound solution to each well in a 96-well microplate. After a pre-incubation period of 10 mins. at 23° C., 3.75 μl of a 0.75 μM solution of UDP-MurNac is added to each well. Following an incubation period of 10 mins. at 37° C., 210 μl stop solution and 50 μl of a 34% w/v sodium citrate solution are added and color is allowed to develop for 10 mins. at 23° C. (Lanzetta et al., Analytical Biochemistry, 1979, 95) Optical density readings are taken at 660 nm using a Molecular Devices Spectra Max 250 with Soft Max software. Controls are performed using the same procedure and omitting the addition of UDP-MurNac. […]
Using these values the IC50 is determined by linear regression analysis.

staphylococci = experiment: Minimum inhibitory concentration, microdilution broth method, staphylococci; assay type: cell-based; details: Mueller-Hinton broth, 18-22 hours at 35° C.; for MIC: Staphylococcus aureus
How it was run: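 Organisms, including methicillin-, penicillin- and/or vancomycin-resistant clinical isolates, tested by NCCLS M7-A5 microdilution. Medium: Mueller-Hinton broth for staphylococci and enterococci, supplemented with 5% lysed horse blood for streptococci.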

[2] = target: T2, S. aureus UDP-N-acetylglucosamine enolpyruvoyl transferase, MurA (Staphylococcus aureus, UniProt P84058); experiment: Inhibitory activity against MurA (S. aureus); assay type: biochemical; details: (S) S. aureus enzyme
T2 sequence (P84058 1-421): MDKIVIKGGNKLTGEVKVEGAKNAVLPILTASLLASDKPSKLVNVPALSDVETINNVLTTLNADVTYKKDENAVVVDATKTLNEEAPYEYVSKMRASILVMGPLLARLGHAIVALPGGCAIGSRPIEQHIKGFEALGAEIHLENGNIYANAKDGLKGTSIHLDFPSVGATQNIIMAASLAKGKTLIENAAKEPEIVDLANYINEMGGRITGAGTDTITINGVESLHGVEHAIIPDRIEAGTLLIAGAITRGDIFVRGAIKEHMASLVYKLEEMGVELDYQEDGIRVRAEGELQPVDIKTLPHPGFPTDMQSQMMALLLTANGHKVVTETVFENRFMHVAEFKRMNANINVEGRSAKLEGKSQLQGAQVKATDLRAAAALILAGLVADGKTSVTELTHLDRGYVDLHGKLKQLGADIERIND
Description: Evaluation of the Inhibitory Activity of Test Compounds Against Enzymes which Catalyze Bacterial Cell Wall Biosynthesis
S. aureus and E. coli UDP-N-acetylglucosamine enolpyruvoyl transferase, MurA
as §1
The enzyme solution is prepared by admixing the following: 50 mM Tris/HCl pH 8.0, […] 1 M Tris, 5 mM DTT, […] 1 M DTT, 20% Glycerol 4 ml 50% Glycerol, add water to 10 ml.
as §2
The stop solution is prepared by mixing the following: 4.2% ammonium molybdate in 4N HCl, 8.4 g/200 ml 4N HCl, 0.045% malachite green, 90 mg/200 ml water, then stir 1 part ammonium molybdate with 2 parts malachite green for 30 min.
A procedure similar to that described by C. T. Walsh in Biochemistry 33, 10646-10651, is used to evaluate the inhibitory activity of test compounds against MurA, the enzyme which catalyzes the first step of bacterial cell wall biosynthesis. Experiments are performed by adding a solution of test compound (in a mixture of dimethylsulfoxide and water) and an enzyme solution to a well. After a pre-incubation period of 10 mintues at 37° C., Tris/BME buffer and assay buffer are added. A start point optical density (OD0) reading is taken at 340 nm immediately following the addition of assay buffer. After incubation for 1 hr at 37° C., the stop solution is added and the color is allowed to develop for 30 minutes. An end point OD1 reading at […] is then taken. […]

[3] = S. aureus GC 1131, read-out: MIC S. aureus GC 1131
[4] = S. aureus GC 4543, read-out: MIC S. aureus GC 4543

Row | Compound | MurC IC50 [1] | MIC S. aureus GC 1131 (staphylococci; S. aureus GC 1131) [µg/mL] | MIC S. aureus GC 4543 (staphylococci; S. aureus GC 4543) [µg/mL] | MurA IC50 [2] | IC50 [1] [µM] | MIC (staphylococci; [3]) [µg/mL] | MIC (staphylococci; [4]) [µg/mL] | IC50 [2] [µM]
1 | O=C1OC(=Cc2cccc3ccccc23)C(O)=C1c1ccc(C=NO)cc1 (mixture of isomers) [Example 73] | 23 µg/mL | >128 | >128 | >25 (S) μg/mL | – | – | – | –
2 | COc1cc(/C=C2\OC(=O)C(c3cccc(Cl)c3)=C2O)ccc1-c1ccccc1Cl [Example 18] | – | – | – | – | 22.8 | 4 (≈ 9.11 µM) | 4 (≈ 9.11 µM) | 13.7
3 | COc1ccccc1-c1ccc(/C=C2\OC(=O)C(c3cc(Cl)cc(Cl)c3)=C2O)cc1OC [Example 19] | – | – | – | – | 40.5 | 2 (≈ 4.26 µM) | 2 (≈ 4.26 µM) | 36.2
4 | COc1ccccc1-c1ccc(/C=C2\OC(=O)C(c3ccc(Cl)c(Cl)c3)=C2O)cc1OC [Example 20] | – | – | – | – | 32 | 4 (≈ 8.52 µM) | 4 (≈ 8.52 µM) | > 53.3
5 | COc1cc(/C=C2\OC(=O)C(c3cc(Cl)cc(Cl)c3)=C2O)ccc1-c1ccccc1Cl [Example 21] | – | – | – | – | 42.2 | 1 (≈ 2.11 µM) | 0.5 (≈ 1.06 µM) | 10.6
6 | COc1cc(/C=C2\OC(=O)C(c3cccc(Cl)c3)=C2O)ccc1-c1ccccc1C [Example 22] | – | – | – | – | 28.6 | 4 (≈ 9.55 µM) | 4 (≈ 9.55 µM) | 21.5
7 | COc1ccccc1-c1ccc(/C=C2\OC(=O)C(c3cccc(Cl)c3)=C2O)cc1C [Example 23] | – | – | – | – | 28.6 | 8 (≈ 19.1 µM) | 4 (≈ 9.55 µM) | 33.4
8 | COc1ccccc1-c1ccc(/C=C2\OC(=O)C(c3cc(Cl)cc(Cl)c3)=C2O)cc1C [Example 24] | – | – | – | – | 26.5 | 2 (≈ 4.41 µM) | 1 (≈ 2.21 µM) | 15.4
9 | COc1cc(/C=C2\OC(=O)C(c3cc(Cl)cc(Cl)c3)=C2O)ccc1-c1ccccc1C [Example 25] | – | – | – | – | 26.5 | 1 (≈ 2.21 µM) | 0.5 (≈ 1.1 µM) | 11
10 | Cc1cc(/C=C2\OC(=O)C(c3cccc(Cl)c3)=C2O)ccc1-c1ccccc1C(F)(F)F [Example 26] | – | – | – | – | 13.1 | 2 (≈ 4.38 µM) | 1 (≈ 2.19 µM) | 8.76
11 | Cc1cc(/C=C2\OC(=O)C(c3cc(Cl)cc(Cl)c3)=C2O)ccc1-c1ccccc1C(F)(F)F [Example 27] | – | – | – | – | > 50.9 | 0.5 (≈ 1.02 µM) | 0.5 (≈ 1.02 µM) | 4.07
12 | Cc1ccccc1-c1ccc(/C=C2\OC(=O)C(c3cccc(Cl)c3)=C2O)cc1C [Example 28] | – | – | – | – | > 62.1 | 1 (≈ 2.48 µM) | 0.5 (≈ 1.24 µM) | 24.8
13 | Cc1ccccc1-c1ccc(/C=C2\OC(=O)C(c3cc(Cl)cc(Cl)c3)=C2O)cc1C [Example 29] | – | – | – | – | 54.9 | 0.5 (≈ 1.14 µM) | 0.5 (≈ 1.14 µM) | 4.57
14 | Cc1cc(/C=C2\OC(=O)C(c3cccc(Cl)c3)=C2O)ccc1-c1ccccc1Cl [Example 30] | – | – | – | – | > 59.1 | 2 (≈ 4.72 µM) | 1 (≈ 2.36 µM) | 7.09
15 | Cc1cc(C=C2OC(=O)C(c3cc(Cl)cc(Cl)c3)=C2O)ccc1-c1ccccc1Cl [Example 31] | >25 (S) μg/mL | 0.5 (≈ 1.09 µM) | 0.25 (≈ 0.546 µM) | 2 (S) μg/mL | – | – | – | –
16 | COc1cc(/C=C2\OC(=O)C(c3cccc(Cl)c3)=C2O)ccc1-c1ccccc1C(F)(F)F [Example 32] | – | – | – | – | 25.4 | 2 (≈ 4.23 µM) | 2 (≈ 4.23 µM) | 21.1
17 | COc1cc(/C=C2\OC(=O)C(c3cc(Cl)cc(Cl)c3)=C2O)ccc1-c1ccccc1C(F)(F)F [Example 33] | – | – | – | – | > 49.3 | 0.5 (≈ 0.986 µM) | 0.5 (≈ 0.986 µM) | 7.89
18 | O=C1O/C(=C\c2ccc(N3CCOCC3)c(F)c2)C(O)=C1c1cc(Cl)cc(Cl)c1 [Example 34] | 21 (S) μg/mL | 32 (≈ 73.3 µM) | 32 (≈ 73.3 µM) | 22 (S) μg/mL | – | – | – | –
19 | COc1ccc(C=C2OC(=O)C(c3cccc(Cl)c3)=C2O)c2ccccc12 [Example 35] | 8 (S) μg/mL | 8 (≈ 21.1 µM) | 8 (≈ 21.1 µM) | >25 (S) μg/mL | – | – | – | –
